Assay results as given in ChEMBL document CHEMBL5050844 (2019).

Legend:
[1] = Induction of anti-CD3/CD28 antibodies-stimulated human T cell activation at 4 uM assessed fold increase in CD25 expression measured by ELISA assay; type: functional, T cell line
[2] = target: T1, E3 ubiquitin-protein ligase CBL-B (Homo sapiens, UniProt Q13191); assay: Inhibition of N-terminal Avi-tagged human CBL-B (36 to 427 residues) incubated with 60 nM Src kinase for 1.5 hrs followed by incubation with fluorescently labeled UbcH5B-Ub for 1 hr and measured by TR-FRET assay; type: single protein
T1 sequence (Q13191 whole entry, the tested form may be a part): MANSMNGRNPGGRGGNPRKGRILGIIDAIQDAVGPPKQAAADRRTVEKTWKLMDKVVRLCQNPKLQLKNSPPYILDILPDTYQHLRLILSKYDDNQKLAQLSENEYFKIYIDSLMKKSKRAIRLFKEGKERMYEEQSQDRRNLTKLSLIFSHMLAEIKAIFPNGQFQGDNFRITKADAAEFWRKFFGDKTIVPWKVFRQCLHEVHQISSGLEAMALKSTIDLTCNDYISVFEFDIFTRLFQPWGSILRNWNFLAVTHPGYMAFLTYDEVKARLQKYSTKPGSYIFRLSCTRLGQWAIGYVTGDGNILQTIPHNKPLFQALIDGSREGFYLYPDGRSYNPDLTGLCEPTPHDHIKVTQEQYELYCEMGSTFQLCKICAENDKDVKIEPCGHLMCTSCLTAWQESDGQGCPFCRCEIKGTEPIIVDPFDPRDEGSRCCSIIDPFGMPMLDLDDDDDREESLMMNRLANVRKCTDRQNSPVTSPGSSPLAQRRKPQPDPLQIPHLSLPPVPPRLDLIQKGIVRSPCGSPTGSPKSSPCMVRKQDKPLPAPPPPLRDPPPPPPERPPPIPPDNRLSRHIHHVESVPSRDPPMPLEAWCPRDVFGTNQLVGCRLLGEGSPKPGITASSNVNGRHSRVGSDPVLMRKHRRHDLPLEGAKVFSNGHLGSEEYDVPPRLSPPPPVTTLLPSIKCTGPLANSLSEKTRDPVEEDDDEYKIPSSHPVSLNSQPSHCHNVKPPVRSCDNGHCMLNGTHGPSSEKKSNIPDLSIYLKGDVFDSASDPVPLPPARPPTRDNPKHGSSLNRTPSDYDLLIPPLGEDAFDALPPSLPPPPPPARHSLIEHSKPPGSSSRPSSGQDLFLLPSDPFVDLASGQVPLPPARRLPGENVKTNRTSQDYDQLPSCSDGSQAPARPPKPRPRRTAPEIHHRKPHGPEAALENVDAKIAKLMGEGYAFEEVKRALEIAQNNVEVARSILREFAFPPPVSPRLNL

[3] = target: T1, E3 ubiquitin-protein ligase CBL-B; assay: Binding affinity towards N-terminal biotinylated Avi-tagged human CBL-B (36 to 427 residues) measured by surface plasmon resonance assay
[4] = Induction of anti-CD3 antibodies-stimulated human T cell activation at 8 uM assessed fold increase in CD25 expression measured by ELISA assay; type: functional, T cell line; further: reference of the scale not given here
[5] = Induction of anti-CD3/CD28 antibodies-stimulated human T cell activation at 0.3 uM assessed fold increase in CD25 expression measured by ELISA assay; type: functional, T cell line
[6] = Induction of anti-CD3 antibodies-stimulated human T cell activation at 1 uM assessed fold increase in IL-2 secretion measured by ELISA assay; type: functional, T cell line; further: reference of the scale not given here
[7] = Induction of anti-CD3/CD28 antibodies-stimulated human T cell activation at 1 uM assessed fold increase in CD25 expression measured by ELISA assay; type: functional, T cell line
[8] = Induction of anti-CD3 antibodies-stimulated human T cell activation at 1 uM assessed fold increase in CD25 expression measured by ELISA assay; type: functional, T cell line; further: reference of the scale not given here
[9] = target: T1, E3 ubiquitin-protein ligase CBL-B; assay: Inhibition of N-terminal Avi-tagged human CBL-B (36 to 427 residues) incubated with 30 nM Src kinase for 1.5 hrs followed by incubation with fluorescently labeled UbcH5B-Ub for 1 hr and measured by TR-FRET assay
[10] = Induction of anti-CD3/CD28 antibodies-stimulated human T cell activation at 1 uM assessed fold increase in IL-2 secretion measured by ELISA assay; type: functional, T cell line
[11] = Induction of anti-CD3 antibodies-stimulated human T cell activation at 8 uM assessed fold increase in IL-2 secretion measured by ELISA assay; type: functional, T cell line; further: reference of the scale not given here
[12] = Induction of anti-CD3/CD28 antibodies-stimulated human T cell activation at 0.3 uM assessed fold increase in IL-2 secretion measured by ELISA assay; type: functional, T cell line
[13] = Induction of anti-CD3/CD28 antibodies-stimulated human T cell activation at 4 uM assessed fold increase in IL-2 secretion measured by ELISA assay; type: functional, T cell line
[14] = Induction of activation of human CD56+ CD3- NK cells co-cultured with human K562 cells in 5:1 ratio and assessed as increase in IFN-gamma secretion at 1 uM measured by ELISA assay; type: functional, Natural killer cell
[15] = Induction of activation of human CD56+ CD3- NK cells co-cultured with human K562 cells in 1:1 ratio and assessed as increase in IFN-gamma secretion at 1 uM measured by ELISA assay; type: functional, Natural killer cell
[16] = Induction of activation of human CD56+ CD3- NK cells co-cultured with human K562 cells in 1:1 ratio and assessed as increase in MIP1beta secretion at 1 uM measured by ELISA assay; type: functional, Natural killer cell
[17] = Induction of activation of human CD56+ CD3- NK cells co-cultured with human K562 cells in 5:1 ratio and assessed as increase in TNF-alpha secretion at 10 uM measured by ELISA assay; type: functional, Natural killer cell
[18] = Induction of activation of human CD56+ CD3- NK cells co-cultured with human K562 cells in 5:1 ratio and assessed as increase in TNF-alpha secretion at 1 uM measured by ELISA assay; type: functional, Natural killer cell
[19] = Induction of activation of human CD56+ CD3- NK cells co-cultured with human K562 cells in 1:1 ratio and assessed as increase in MIP1beta secretion at 10 uM measured by ELISA assay; type: functional, Natural killer cell
[20] = Induction of activation of human CD56+ CD3- NK cells co-cultured with human K562 cells in 1:1 ratio and assessed as increase in TNF-alpha secretion at 1 uM measured by ELISA assay; type: functional, Natural killer cell
[21] = Induction of activation of human CD56+ CD3- NK cells co-cultured with human K562 cells in 5:1 ratio and assessed as increase in MIP1beta secretion at 1 uM measured by ELISA assay; type: functional, Natural killer cell
[22] = Induction of activation of human CD56+ CD3- NK cells co-cultured with human K562 cells in 1:1 ratio and assessed as increase in IFN-gamma secretion at 10 uM measured by ELISA assay; type: functional, Natural killer cell
[23] = Induction of activation of human CD56+ CD3- NK cells co-cultured with human K562 cells in 1:1 ratio and assessed as increase in TNF-alpha secretion at 10 uM measured by ELISA assay; type: functional, Natural killer cell
[24] = Induction of activation of human CD56+ CD3- NK cells co-cultured with human K562 cells in 5:1 ratio and assessed as increase in IFN-gamma secretion at 10 uM measured by ELISA assay; type: functional, Natural killer cell
[25] = Induction of activation of human CD56+ CD3- NK cells co-cultured with human K562 cells in 5:1 ratio and assessed as increase in MIP1beta secretion at 10 uM measured by ELISA assay; type: functional, Natural killer cell
[26] = Induction of anti-CD3 antibodies-stimulated human CD4+ T cell activation in immunocompetent mouse assessed fold increase in CD25 expression at 180 mg/kg, po administered twice a day; type: functional; further: reference of the scale not given here
[27] = Induction of anti-CD3 antibodies-stimulated human CD8+ T cell activation in immunocompetent mouse assessed fold increase in CD25 expression at 135 mg/kg, po administered twice a day; type: functional; further: reference of the scale not given here
[28] = Induction of anti-CD3 antibodies-stimulated human CD8+ T cell activation in immunocompetent mouse assessed fold increase in CD25 expression at 90 mg/kg, po administered twice a day; type: functional; further: reference of the scale not given here
[29] = Induction of anti-CD3 antibodies-stimulated human CD8+ T cell activation in immunocompetent mouse assessed fold increase in CD25 expression at 180 mg/kg, po administered twice a day; type: functional; further: reference of the scale not given here
[30] = Induction of anti-CD3 antibodies-stimulated human CD4+ T cell activation in immunocompetent mouse assessed fold increase in CD25 expression at 90 mg/kg, po administered twice a day; type: functional; further: reference of the scale not given here
[31] = Induction of anti-CD3 antibodies-stimulated human CD8+ T cell activation in immunocompetent mouse assessed fold increase in CD25 expression at 90 mg/kg, ip administered thrice a day; type: functional; further: reference of the scale not given here
[32] = Induction of anti-CD3 antibodies-stimulated human CD4+ T cell activation in immunocompetent mouse assessed fold increase in CD25 expression at 135 mg/kg, po administered twice a day; type: functional; further: reference of the scale not given here
[33] = Induction of anti-CD3 antibodies-stimulated human CD8+ T cell activation in immunocompetent mouse assessed fold increase in CD25 expression at 45 mg/kg, po administered twice a day; type: functional; further: reference of the scale not given here

IC50 [2] | Kd [3] | IC50 [9] | Compound | fold change (FC) [1] | fold change (FC) [4] | fold change (FC) [5] | fold change (FC) [6] | fold change (FC) [7] | fold change (FC) [8] | fold change (FC) [10] | fold change (FC) [11] | fold change (FC) [12] | fold change (FC) [13] | other results
≤ 1 µM | ≥ 1 µM | – | CC(Sc1nncn1C)c1cccc(NC(=O)c2ccc3ccccc3n2)c1 (stereo not drawn) | 1.01 | 0.601 | <=1 | <=0.05 | <=1 | <=0.6 | 1.01 | 0.051 | 1.01 | 2.51 | Kd [9]: ≥ 1 µM
– | ≥ 3 µM | ≥ 3 µM | Cc1nc2cc(C(C)Sc3nncn3C)cc(N)c2o1 (stereo not drawn) | – | – | – | – | – | – | – | – | – | – | –
– | > 10 µM | > 10 µM | CC(Sc1nncn1C)c1cccc(NC(=O)c2ccc3ncccc3c2)c1 (stereo not drawn) | – | – | – | – | – | – | – | – | – | – | –
≤ 1 µM | ≥ 1 µM | ≤ 1 µM | C[C@H](Sc1nncn1C)c1cccc(NC(=O)c2ccc3ccccc3n2)c1 | 1.01 | 0.601 | 1.01 | <=0.05 | 1.01 | 0.601 | 1.01 | 0.051 | 1.01 | 1.01 | –
< 0.1 µM | < 0.1 µM | – | C[C@H](Cc1nncn1C)c1cccc(NC(=O)c2cc(C(=O)N3CC[C@H](O)C3)cc(C(F)(F)F)n2)c1 | >=1.76 | >=1.001 | 1.31 | >=0.201 | 1.51 | >=1.001 | >=7.5 | >=0.201 | 2.51 | >=7.5 | fold change (FC) [14]: 1.01; fold change (FC) [15]: 1.01; fold change (FC) [16]: 1.01; fold change (FC) [17]: 2.01; fold change (FC) [18]: 1.01; fold change (FC) [19]: 2.01; fold change (FC) [20]: 1.01; fold change (FC) [21]: 1.01; fold change (FC) [22]: 2.01; fold change (FC) [23]: 2.01; fold change (FC) [24]: 2.01; fold change (FC) [25]: 2.01
< 0.1 µM | – | – | Cn1cnnc1CC1(c2cccc(N3Cc4c(cc(CN5CC[C@@H](C#N)C5)cc4C(F)(F)F)C3=O)c2)COC1 | 1.31 | >=1.001 | 1.01 | 0.101 | 1.01 | >=1.001 | >=7.5 | >=0.201 | 5 | >=7.5 | fold change (FC) [26]: <1; fold change (FC) [27]: <1; fold change (FC) [28]: <1; fold change (FC) [29]: <1; fold change (FC) [30]: <1; fold change (FC) [31]: <1; fold change (FC) [32]: <1; fold change (FC) [33]: <1
